Results on 6 molecules are retold here after patent US20250314639A1, “SYSTEMS AND METHODS FOR HIGH THROUGHPUT SINGLE MOLECULE TRACKING IN LIVING CELLS” (EIKON THERAPEUTICS, INC., priority 2022, published 2025).

Entries after “also recorded” stand apart in the source; their conditions may differ.

The target in test [1] is T1, ER (Homo sapiens, UniProt P03372).
T1 construct: expressed in transfected cells; host or cells: U2OS
T1 sequence (P03372 1-595): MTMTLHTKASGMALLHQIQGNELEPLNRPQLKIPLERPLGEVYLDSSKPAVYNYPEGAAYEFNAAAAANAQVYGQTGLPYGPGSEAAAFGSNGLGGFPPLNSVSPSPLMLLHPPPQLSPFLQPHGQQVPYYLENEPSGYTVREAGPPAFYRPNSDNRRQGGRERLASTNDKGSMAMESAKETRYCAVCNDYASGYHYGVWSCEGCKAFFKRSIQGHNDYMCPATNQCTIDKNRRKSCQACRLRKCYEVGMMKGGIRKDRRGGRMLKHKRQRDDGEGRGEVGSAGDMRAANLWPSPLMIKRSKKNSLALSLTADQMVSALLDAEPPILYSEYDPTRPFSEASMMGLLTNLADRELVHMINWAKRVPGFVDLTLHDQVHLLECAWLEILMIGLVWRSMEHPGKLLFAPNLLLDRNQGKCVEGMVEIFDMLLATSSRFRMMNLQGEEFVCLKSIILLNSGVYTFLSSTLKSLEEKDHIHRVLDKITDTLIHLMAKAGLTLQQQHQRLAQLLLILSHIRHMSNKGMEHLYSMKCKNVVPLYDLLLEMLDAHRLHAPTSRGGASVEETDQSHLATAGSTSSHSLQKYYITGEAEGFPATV
Briefly: kinetic SMT (kSMT) of ER after compound addition. The test is classed as cell-based. To be noted: for t1/2 of increase in fbound: 100 nM compound, single exponential fit; for time at which overall effect on ER movement reaches a plateau: FIG. 16C.

Test [2] has as its target T1, ER. In words: htSMT change in fbound of Halo-ER in U2OS cells. The following applies: for change in fbound of ER: versus DMSO, bioactive screen at 1 μM compound. The test is classed as cell-based.
Test [3] addresses T1, ER. In words: residence time imaging of ER-Halo cells (track length survival). It is filed as cell-based. To be noted: 100 nM HSP90 inhibition, versus DMSO, FIG. 16E.
Another test addresses T2, GR (Homo sapiens, UniProt P04150).
T2 construct: Because U2OS cells express GR endogenously; endogenous in cells; host or cells: U2OS (CRISPR/Cas9 knock-in at the endogenous locus)
T2 sequence (P04150 1-777): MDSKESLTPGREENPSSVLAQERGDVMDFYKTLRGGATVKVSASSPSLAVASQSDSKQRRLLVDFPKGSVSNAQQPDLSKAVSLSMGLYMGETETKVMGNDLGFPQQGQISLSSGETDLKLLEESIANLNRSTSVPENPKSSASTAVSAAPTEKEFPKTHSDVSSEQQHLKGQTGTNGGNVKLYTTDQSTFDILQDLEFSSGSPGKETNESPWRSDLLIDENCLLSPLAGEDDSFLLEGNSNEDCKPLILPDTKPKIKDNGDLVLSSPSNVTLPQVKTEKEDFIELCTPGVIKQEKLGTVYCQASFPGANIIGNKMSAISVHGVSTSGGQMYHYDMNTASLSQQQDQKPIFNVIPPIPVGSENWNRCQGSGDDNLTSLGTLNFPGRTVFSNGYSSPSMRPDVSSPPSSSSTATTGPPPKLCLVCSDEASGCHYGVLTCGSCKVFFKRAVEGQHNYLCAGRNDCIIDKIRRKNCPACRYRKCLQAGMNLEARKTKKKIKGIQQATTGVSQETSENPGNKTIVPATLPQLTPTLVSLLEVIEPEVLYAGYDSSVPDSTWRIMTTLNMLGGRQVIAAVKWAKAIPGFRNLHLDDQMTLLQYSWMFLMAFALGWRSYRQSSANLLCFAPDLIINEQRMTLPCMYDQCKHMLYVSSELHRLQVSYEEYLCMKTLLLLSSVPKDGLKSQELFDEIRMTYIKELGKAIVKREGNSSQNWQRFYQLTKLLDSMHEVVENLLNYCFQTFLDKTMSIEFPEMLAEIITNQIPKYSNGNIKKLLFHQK
In words: htSMT fbound of GR-HaloTag in U2OS cells. The test is classed as cell-based. To be noted: 1 μM antagonist, singly or co-administered with the cognate agonist. The text has this:
Where appropriate, compounds were serially diluted in an Echo Qualified 384-Well Low Dead Volume Source Microplate (0018544, Beckman Coulter) to generate dose-titration source material.

Another test deals with AR (Homo sapiens, UniProt P10275).
Sequence of AR (P10275 whole entry): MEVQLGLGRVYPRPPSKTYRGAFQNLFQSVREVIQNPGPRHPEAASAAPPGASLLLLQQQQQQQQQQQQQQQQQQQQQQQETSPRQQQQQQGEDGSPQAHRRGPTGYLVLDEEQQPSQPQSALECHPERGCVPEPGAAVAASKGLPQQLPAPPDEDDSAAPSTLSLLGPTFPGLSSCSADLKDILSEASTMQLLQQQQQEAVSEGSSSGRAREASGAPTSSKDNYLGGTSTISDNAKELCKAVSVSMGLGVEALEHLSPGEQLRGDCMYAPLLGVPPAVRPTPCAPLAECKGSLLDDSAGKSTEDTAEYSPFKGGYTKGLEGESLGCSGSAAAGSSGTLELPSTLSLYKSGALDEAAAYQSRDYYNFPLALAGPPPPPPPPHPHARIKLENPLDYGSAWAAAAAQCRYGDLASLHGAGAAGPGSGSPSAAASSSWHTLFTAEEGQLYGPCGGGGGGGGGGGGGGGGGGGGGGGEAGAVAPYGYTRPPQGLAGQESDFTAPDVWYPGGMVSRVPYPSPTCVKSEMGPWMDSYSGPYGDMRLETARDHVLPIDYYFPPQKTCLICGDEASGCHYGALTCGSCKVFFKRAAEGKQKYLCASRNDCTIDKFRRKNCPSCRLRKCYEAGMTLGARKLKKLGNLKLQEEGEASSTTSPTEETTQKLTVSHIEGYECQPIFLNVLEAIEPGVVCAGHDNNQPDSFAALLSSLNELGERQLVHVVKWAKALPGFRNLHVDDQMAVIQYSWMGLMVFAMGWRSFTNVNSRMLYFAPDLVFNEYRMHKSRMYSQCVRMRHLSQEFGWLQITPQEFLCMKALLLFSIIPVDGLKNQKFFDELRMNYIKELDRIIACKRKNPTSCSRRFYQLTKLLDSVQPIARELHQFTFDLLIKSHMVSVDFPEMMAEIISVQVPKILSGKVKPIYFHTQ
Test [4] deals with T1, ER. In words: Western blot of ER after 24 hours compound treatment. The test is classed as cell-based. The following applies: 100 nM fulvestrant, MCF7, T47d, Halo-ER U2OS. The method, then:
Cells were grown in the same conditions as described previously. […] Cells are lysed in 200 μL 1× Cell Lysis Buffer (catalogue number 9803, Cell Signaling). Protein lysate concentration is then determined using BCA protein assay kit (Catalog number 23225, Pierce™ BCA Protein Assay Kit) following manufacturer instructions. Capillary Western Immunoassay were performed using Jess Protein Simple following manufacturer's instruction (protein simple, USA). Levels of αER (1:100, RM-9101) were normalized to loading control β-tubulin (1:100, NC0244815 LI-COR 92642213, Thermo Fisher). The peaks were analyzed with the Compass software (Protein Simple, USA).
(In general: A western blot detects proteins with antibodies after separation by electrophoresis.)

Regarding `COc1cccc(-c2cc(F)ccc2[C@H]2Cc3nc(N)nc(C)c3C(=O)N2)n1` [HSP990], at ER [1], the “t1/2 of increase in fbound” value turned out to be 17.5 min and the “time at which overall effect on ER movement reaches a plateau” value was “plateau after an hour”. The “change in fbound of ER” value at ER [2] is “an increase in fbound”. Moreover, the “decrease in the total number of long binding events” value at ER [3] is reported as “two”.

With 4-hydroxytamoxifen, on ER [2] (compared with the SERDs fulvestrant and GDC-0927, FIG. 14D), the “maximal increase in fbound of ER” value is “lower maximal increases in fbound”. Further, the “change in fbound of ER” value on ER [2] was “significantly increased fbound”.

Consider `CC(C)c1cc(-c2n[nH]c(=O)n2-c2ccc3c(ccn3C)c2)c(O)cc1O` [ganetespib], for which, at ER [1], the “t1/2 of increase in fbound” value was found to be 19.3 min and the “time at which overall effect on ER movement reaches a plateau” value is listed as “plateau after an hour”. Further, the “change in fbound of ER” value at ER [2] is listed as “an increase in fbound”. In addition, the “decrease in the total number of long binding events” value on ER [3] is listed as “four”.

In the case of `CN(C)c1ccc(C(c2ccc(N(C)C)cc2)c2cc([N+](=O)[O-])ccc2Cl)cc1` [AL082D06], the “change in chromatin binding (fbound) of GR” value on GR is reported as “decrease in chromatin binding”.

For `CC(O)c1cc(C(=O)N[C@@H](C)Cn2ccc(-c3ccc(C#N)c(Cl)c3)n2)[nH]n1` (some centres unmarked) [Darolutamide], the “change in chromatin binding (fbound) of AR” value on AR is “decrease in chromatin binding”.

`C[C@]12CC[C@@H]3c4ccc(O)cc4C[C@@H](CCCCCCCCC[S+]([O-])CCCC(F)(F)C(F)(F)F)[C@H]3[C@@H]1CC[C@@H]2O` (some centres unmarked) [fulvestrant]: the “ER degradation (western blot)” value on ER [4] is on record as “leads to the degradation of ER”. On ER [2], the “change in fbound of ER” value is “caused an increase in fbound; also recorded: significantly increased fbound”.
